# In patent US20260125400A1, “TYK2 DEGRADERS AND USES THEREOF” (Kymera Therapeutics, Inc., priority 2023, published 2026):
# Molecular target: T1, TYK2 (Homo sapiens, UniProt P29597)
# T1 construct: Degradation of TYK2 in cells was quantitatively measured using Meso Scale Discovery (MSD) technology; endogenous in cells; host or cells: OCI-LY10
# Assay: TYK2 MSD degradation in OCI-LY10 cells
# Type: cell-based
# Conditions: TYK2 degradation in OCI-LY10 cells, 4 to 24 hours incubation
# How it was run: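 OCI-LY10 cells were treated with 9-dose 1:3 series (top 1 to 10 μM final) for 4 to 24 hours at 37° C. Lysate TYK2 quantified by MSD sandwich immunoassay; DC50 and Dmax from four-parameter inhibitor vs. response fit.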
# T1 sequence (P29597 whole entry): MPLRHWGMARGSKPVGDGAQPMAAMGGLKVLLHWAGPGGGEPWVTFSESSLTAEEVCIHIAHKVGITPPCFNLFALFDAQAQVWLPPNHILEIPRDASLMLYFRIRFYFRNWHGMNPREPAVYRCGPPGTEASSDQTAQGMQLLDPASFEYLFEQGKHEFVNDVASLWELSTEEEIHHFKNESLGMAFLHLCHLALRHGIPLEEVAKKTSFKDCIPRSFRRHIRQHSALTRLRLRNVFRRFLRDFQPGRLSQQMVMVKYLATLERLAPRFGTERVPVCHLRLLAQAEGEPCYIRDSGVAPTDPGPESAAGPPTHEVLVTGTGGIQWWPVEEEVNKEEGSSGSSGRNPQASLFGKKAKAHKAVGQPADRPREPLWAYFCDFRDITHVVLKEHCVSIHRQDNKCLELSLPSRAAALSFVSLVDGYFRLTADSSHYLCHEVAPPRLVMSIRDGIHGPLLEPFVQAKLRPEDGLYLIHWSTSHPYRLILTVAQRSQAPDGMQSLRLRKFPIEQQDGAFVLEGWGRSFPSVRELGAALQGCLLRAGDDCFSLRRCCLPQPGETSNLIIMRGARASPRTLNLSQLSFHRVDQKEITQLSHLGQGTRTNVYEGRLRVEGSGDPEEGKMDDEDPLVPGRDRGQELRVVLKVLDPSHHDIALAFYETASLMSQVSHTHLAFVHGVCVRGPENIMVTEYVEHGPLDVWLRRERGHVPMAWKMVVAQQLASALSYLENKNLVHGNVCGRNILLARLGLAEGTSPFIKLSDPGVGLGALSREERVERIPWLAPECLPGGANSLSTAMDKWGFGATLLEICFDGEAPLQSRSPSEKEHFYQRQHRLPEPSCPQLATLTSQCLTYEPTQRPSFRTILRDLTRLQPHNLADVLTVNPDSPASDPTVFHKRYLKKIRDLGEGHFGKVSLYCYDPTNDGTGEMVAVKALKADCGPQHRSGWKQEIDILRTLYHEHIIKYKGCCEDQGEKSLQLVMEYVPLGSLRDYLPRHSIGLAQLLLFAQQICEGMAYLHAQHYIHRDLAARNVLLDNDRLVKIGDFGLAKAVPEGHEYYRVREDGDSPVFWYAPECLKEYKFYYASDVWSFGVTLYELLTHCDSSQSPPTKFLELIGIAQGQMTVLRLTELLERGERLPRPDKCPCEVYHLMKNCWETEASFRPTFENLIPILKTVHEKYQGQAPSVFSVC
row,Compound,TYK2 MSD OCI-LY10 Dmax %
1,CNc1cc(N2CCc3c(CC4CCN(C5CCC6(CC5)CCN(C(=O)c5ccc(Cl)c(N7CCC(=O)NC7=O)c5)CC6)CC4)cccc32)nn2c(C(=O)N[C@@H]3C[C@@H]3F)cnc12 [I-820],B (B (90 to >75%))
2,CNc1cc(N2CCc3c(-c4ncc(CN5CC6(CCN(C(=O)c7cc(Cl)c(C)c(N8CCC(=O)NC8=O)c7)CC6(F)F)C5)cc4F)cc(F)cc32)nn2c(C(=O)NC3CCC3OC)cnc12 (centres unmarked) [I-1038],A (A (>90%))
3,CNc1cc(N2CCc3c(-c4ncc(CN5CC6(CCN(C(=O)c7ccc(C)c(N8CCC(=O)NC8=O)c7)CC6(F)F)C5)cc4F)cccc32)nn2c(C(=O)N[C@@H]3CC[C@H]3OC)cnc12 [I-1004],A (A (>90%))
4,CNc1cc(N2CCc3c(N4CCN(C5CCC6(CC5)CCN(C(=O)c5ccc(Cl)c(N7CCC(=O)NC7=O)c5)CC6)CC4)cccc32)nn2c(C(=O)N[C@@H]3C[C@@H]3F)cnc12 [I-284],D (D (<50%))
5,CNc1cc(N2CCc3c(-c4ccc(CN5CC6(CCN(C(=O)c7ccc(Cl)c(N8CCC(=O)NC8=O)c7)CC6(F)F)C5)cn4)cc(OC)cc32)nn2c(C(=O)N[C@@H]3C[C@@H]3F)cnc12 [I-859],B (B (90 to >75%))
6,CNc1cc(N2CC3(CCN(c4cccc5c4n(C)c(=O)n5C4CCC(=O)NC4=O)CC3)c3ccccc32)nn2c(C(=O)NC3CC3)cnc12 (centres unmarked) [I-51],D (D (<50%))
7,CNc1cc(N2CCc3c(-c4ncc(CN5CC6(CCN(C(=O)c7cc(C)c(OC)c(N8CCC(=O)NC8=O)c7)CC6(F)F)C5)cc4F)cccc32)nn2c(C(=O)N[C@@H]3CC[C@H]3OC)cnc12 [I-1138],B (B (90 to >75%))
8,CNc1cc(N2CCc3c(CN4CCC(N5CCC6(CCN(C(=O)c7cc(N8CCC(=O)NC8=O)c(Cl)c(C)n7)CC6)CC5)C(F)(F)C4)cc(F)cc32)nn2c(C(=O)N[C@@H]3CC[C@H]3OC)cnc12 (some centres unmarked) [I-1159],A (A (>90%))
9,CNc1cc(N2CCc3c(-c4ncc(CN5CC6(CCN(C(=O)c7cc(N8CCC(=O)NC8=O)c(Cl)cc7F)CC6(F)F)C5)cc4F)cccc32)nn2c(C(=O)NC3CCC3OC)cnc12 (centres unmarked) [I-1005],A (A (>90%))
10,CNc1cc(N2CCc3c(-c4ccc(CN5CCC6(CC5)CC(Oc5ccc(N7CCC(=O)NC7=O)c(Cl)c5)C6)cn4)cccc32)nn2c(C(=O)N[C@@H]3C[C@@H]3F)cnc12 [I-898],D (D (<50%))
11,CNc1cc(N2CCc3c(-c4ccc(CN5CCC6(CC5)CCN(C(=O)c5ccc(Cl)c(C7CCC(=O)NC7=O)c5)CC6)cn4)cccc32)nn2c(C(=O)N[C@@H]3C[C@@H]3F)cnc12 (some centres unmarked) [I-91],B (B (90 to >75%))
12,CNc1cc(N2CCc3c(-c4ccc(CN5CCC6(CCN(C(=O)c7cc(C)c(Cl)c(N8CCC(=O)NC8=O)c7)CC6)C(F)(F)C5)cn4)cccc32)nc2c(C(=O)N[C@@H]3C[C@@H]3F)cnn12 [I-816],B (B (90 to >75%))
13,CNc1cc(N2CCc3c(-c4ccc(CN5CCC6(CC5)CCN(c5cccc7c5n(C)c(=O)n7C5CCC(=O)NC5=O)CC6)cn4)cccc32)nn2c(C(=O)NC3CC3)cnc12 (centres unmarked) [I-54],C (C (75 to 50%))
14,CNc1cc(N2CCc3c(-c4ncc(CN5CC6(CCN(C(=O)c7ccc(C)c(N8CCC(=O)NC8=O)c7)CC6(F)F)C5)cc4F)cccc32)nn2c(C(=O)N[C@@H]3C[C@@H]3F)cnc12 [I-1018],A (A (>90%))
15,CNc1cc(N2CCc3c(-c4cc(CN5CCC(c6ccc7c(c6)n(C)c(=O)n7C6CCC(=O)NC6=O)C(F)(F)C5)ccn4)cccc32)nn2c(C(=O)NC3CC3)cnc12 (centres unmarked) [I-4],D (D (<50%))
16,CNc1cc(N2CCc3c(CN4CCC(N5CCN(c6ccc7c(c6)n(C)c(=O)n7C6CCC(=O)NC6=O)CC5)C(F)(F)C4)cccc32)nn2c(C(=O)NC3CC3)cnc12 (centres unmarked) [I-15],C (C (75 to 50%))
17,CNc1cc(N2CCc3c2cccc3C23CC(CN4CCC(N5CCC6(CCN(C(=O)c7ccc(Cl)c(N8CCC(=O)NC8=O)c7)CC6)CC5)C(F)(F)C4)(C2)C3)nn2c(C(=O)N[C@@H]3C[C@@H]3F)cnc12 (some centres unmarked) [I-807],B (B (90 to >75%))
18,CCNC(=O)c1nnc(Nc2ccc(CN3CC4(CCN(c5cccc6c5n(C)c(=O)n6C5CCC(=O)NC5=O)CC4(F)F)C3)cn2)cc1Nc1cccc(F)c1OC (centres unmarked) [I-92],C (C (75 to 50%))
19,CNc1cc(N2CCc3c(-c4ccc(CN5CC6(C5)CN(C(=O)c5ccc(Cl)c(N7CCC(=O)NC7=O)c5)C6)cn4)cccc32)nn2c(C(=O)NC3CC3F)cnc12 (centres unmarked) [I-295],D (D (<50%))

# Same assay, conditions: TYK2 degradation in OCI-LY10 cells, 4 to 24 hours incubation, read-out: TYK2 MSD OCI-LY10 Rel-DC50
row,Compound,DC50 [nM]
1,CNc1cc(N2CCc3c(CC4CCN(C5CCC6(CC5)CCN(C(=O)c5ccc(Cl)c(N7CCC(=O)NC7=O)c5)CC6)CC4)cccc32)nn2c(C(=O)N[C@@H]3C[C@@H]3F)cnc12 [I-820],< 10
2,CNc1cc(N2CCc3c(-c4ncc(CN5CC6(CCN(C(=O)c7cc(Cl)c(C)c(N8CCC(=O)NC8=O)c7)CC6(F)F)C5)cc4F)cc(F)cc32)nn2c(C(=O)NC3CCC3OC)cnc12 (centres unmarked) [I-1038],< 1
3,CNc1cc(N2CCc3c(-c4ncc(CN5CC6(CCN(C(=O)c7ccc(C)c(N8CCC(=O)NC8=O)c7)CC6(F)F)C5)cc4F)cccc32)nn2c(C(=O)N[C@@H]3CC[C@H]3OC)cnc12 [I-1004],< 1
4,CNc1cc(N2CCc3c(N4CCN(C5CCC6(CC5)CCN(C(=O)c5ccc(Cl)c(N7CCC(=O)NC7=O)c5)CC6)CC4)cccc32)nn2c(C(=O)N[C@@H]3C[C@@H]3F)cnc12 [I-284],> 100
5,CNc1cc(N2CCc3c(-c4ccc(CN5CC6(CCN(C(=O)c7ccc(Cl)c(N8CCC(=O)NC8=O)c7)CC6(F)F)C5)cn4)cc(OC)cc32)nn2c(C(=O)N[C@@H]3C[C@@H]3F)cnc12 [I-859],< 10
6,CNc1cc(N2CC3(CCN(c4cccc5c4n(C)c(=O)n5C4CCC(=O)NC4=O)CC3)c3ccccc32)nn2c(C(=O)NC3CC3)cnc12 (centres unmarked) [I-51],> 100
7,CNc1cc(N2CCc3c(-c4ncc(CN5CC6(CCN(C(=O)c7cc(C)c(OC)c(N8CCC(=O)NC8=O)c7)CC6(F)F)C5)cc4F)cccc32)nn2c(C(=O)N[C@@H]3CC[C@H]3OC)cnc12 [I-1138],< 1
8,CNc1cc(N2CCc3c(CN4CCC(N5CCC6(CCN(C(=O)c7cc(N8CCC(=O)NC8=O)c(Cl)c(C)n7)CC6)CC5)C(F)(F)C4)cc(F)cc32)nn2c(C(=O)N[C@@H]3CC[C@H]3OC)cnc12 (some centres unmarked) [I-1159],< 1
9,CNc1cc(N2CCc3c(-c4ncc(CN5CC6(CCN(C(=O)c7cc(N8CCC(=O)NC8=O)c(Cl)cc7F)CC6(F)F)C5)cc4F)cccc32)nn2c(C(=O)NC3CCC3OC)cnc12 (centres unmarked) [I-1005],< 1
10,CNc1cc(N2CCc3c(-c4ccc(CN5CCC6(CC5)CC(Oc5ccc(N7CCC(=O)NC7=O)c(Cl)c5)C6)cn4)cccc32)nn2c(C(=O)N[C@@H]3C[C@@H]3F)cnc12 [I-898],> 100
11,CNc1cc(N2CCc3c(-c4ccc(CN5CCC6(CC5)CCN(C(=O)c5ccc(Cl)c(C7CCC(=O)NC7=O)c5)CC6)cn4)cccc32)nn2c(C(=O)N[C@@H]3C[C@@H]3F)cnc12 (some centres unmarked) [I-91],< 1
12,CNc1cc(N2CCc3c(-c4ccc(CN5CCC6(CCN(C(=O)c7cc(C)c(Cl)c(N8CCC(=O)NC8=O)c7)CC6)C(F)(F)C5)cn4)cccc32)nc2c(C(=O)N[C@@H]3C[C@@H]3F)cnn12 [I-816],< 10
13,CNc1cc(N2CCc3c(-c4ccc(CN5CCC6(CC5)CCN(c5cccc7c5n(C)c(=O)n7C5CCC(=O)NC5=O)CC6)cn4)cccc32)nn2c(C(=O)NC3CC3)cnc12 (centres unmarked) [I-54],< 10
14,CNc1cc(N2CCc3c(-c4ncc(CN5CC6(CCN(C(=O)c7ccc(C)c(N8CCC(=O)NC8=O)c7)CC6(F)F)C5)cc4F)cccc32)nn2c(C(=O)N[C@@H]3C[C@@H]3F)cnc12 [I-1018],< 1
15,CNc1cc(N2CCc3c(-c4cc(CN5CCC(c6ccc7c(c6)n(C)c(=O)n7C6CCC(=O)NC6=O)C(F)(F)C5)ccn4)cccc32)nn2c(C(=O)NC3CC3)cnc12 (centres unmarked) [I-4],> 100
16,CNc1cc(N2CCc3c(CN4CCC(N5CCN(c6ccc7c(c6)n(C)c(=O)n7C6CCC(=O)NC6=O)CC5)C(F)(F)C4)cccc32)nn2c(C(=O)NC3CC3)cnc12 (centres unmarked) [I-15],< 1
17,CNc1cc(N2CCc3c2cccc3C23CC(CN4CCC(N5CCC6(CCN(C(=O)c7ccc(Cl)c(N8CCC(=O)NC8=O)c7)CC6)CC5)C(F)(F)C4)(C2)C3)nn2c(C(=O)N[C@@H]3C[C@@H]3F)cnc12 (some centres unmarked) [I-807],< 10
18,CCNC(=O)c1nnc(Nc2ccc(CN3CC4(CCN(c5cccc6c5n(C)c(=O)n6C5CCC(=O)NC5=O)CC4(F)F)C3)cn2)cc1Nc1cccc(F)c1OC (centres unmarked) [I-92],10 to 100
19,CNc1cc(N2CCc3c(-c4ccc(CN5CC6(C5)CN(C(=O)c5ccc(Cl)c(N7CCC(=O)NC7=O)c5)C6)cn4)cccc32)nn2c(C(=O)NC3CC3F)cnc12 (centres unmarked) [I-295],< 10
